According to the supplement of paper PMC10307832:

How the values were obtained:
Assay in all cases: relative viability (nuclei count vs DMSO), 5 days (fraction); higher = more cells survive
AZD6482 + Alpelisib = compound: Cc1cc([C@@H](C)Nc2ccccc2C(=O)O)c2nc(N3CCOCC3)cc(=O)n2c1 [AZD6482] + Cc1nc(NC(=O)N2CCC[C@H]2C(N)=O)sc1-c1ccnc(C(C)(C)C(F)(F)F)c1 [Alpelisib] (partner 2 µM)
Method in brief: (§1)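 Lung cancer cell lines, seeded in 1536-well plates, were treated the following day by pin tool with a single drug or with five library-drug doses (not always all listed) in √10 steps on top of a fixed anchor-drug dose. Cells were fixed and nuclei stained in one step after 5 days, and nuclei were counted. Relative viability is the nuclei count for treated wells divided by that for vehicle wells, reported as medians of duplicate plates.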

[1] = compound: COc1cc2nc(N3CCCN(C)CC3)nc(NC3CCN(Cc4ccccc4)CC3)c2cc1OC + CS(=O)(=O)CCNCc1ccc(-c2ccc3ncnc(Nc4ccc(OCc5cccc(F)c5)c(Cl)c4)c3c2)o1 [Lapatinib] (partner 2 µM)
Method in brief: as §1

[2] = compound: COc1cc2nc(N3CCCN(C)CC3)nc(NC3CCN(Cc4ccccc4)CC3)c2cc1OC + CS(=O)(=O)N1CCN(Cc2cc3nc(-c4cccc5[nH]ncc45)nc(N4CCOCC4)c3s2)CC1 [Pictilisib] (partner 1 µM)
Method in brief: as §1

AZD6482 + Lapatinib = compound: Cc1cc([C@@H](C)Nc2ccccc2C(=O)O)c2nc(N3CCOCC3)cc(=O)n2c1 [AZD6482] + CS(=O)(=O)CCNCc1ccc(-c2ccc3ncnc(Nc4ccc(OCc5cccc(F)c5)c(Cl)c4)c3c2)o1 [Lapatinib] (partner 2 µM)
Method in brief: as §1

| Cell Line | relative viability (AZD6482 + Alpelisib; first compound 0.08 µM) | relative viability (AZD6482 + Alpelisib; first compound 0.253 µM) | relative viability (AZD6482 + Alpelisib; first compound 8 µM) | relative viability ([1]; first compound 0.2 µM) | relative viability ([1]; first compound 0.6325 µM) | relative viability ([1]; first compound 2 µM) | relative viability ([1]; first compound 6.325 µM) | relative viability ([2]; first compound 0.2 µM) | relative viability ([2]; first compound 0.6325 µM) | relative viability ([2]; first compound 2 µM) | relative viability ([2]; first compound 6.325 µM) | relative viability (AZD6482 + Lapatinib; first compound 0.08 µM) | relative viability (AZD6482 + Lapatinib; first compound 0.253 µM) | relative viability (AZD6482 + Lapatinib; first compound 8 µM) | relative viability (AZD6482 + Alpelisib; first compound 0.8 µM) | relative viability (AZD6482 + Alpelisib; first compound 2.53 µM) | relative viability (AZD6482 + Lapatinib; first compound 0.8 µM) | relative viability (AZD6482 + Lapatinib; first compound 2.53 µM) |
| --- | --- | --- | --- | --- | --- | --- | --- | --- | --- | --- | --- | --- | --- | --- | --- | --- | --- | --- |
| NCI-H1993 | 0.701 | 0.653 | 0.767 | 0.684 | 0.907 | 0.834 | 0.751 | 0.709 | 0.858 | 0.894 | 0.811 | 0.779 | 0.791 | 0.784 | – | – | – | – |
| RERF-LC-KJ | 0.653 | 0.614 | 0.637 | 0.832 | 0.863 | 0.875 | 0.829 | 0.458 | 0.559 | 0.585 | 0.579 | 0.752 | 0.836 | 0.67 | 0.6 | 0.559 | 0.705 | 0.791 |
| NCI-H23 | 0.642 | 0.534 | 0.597 | 1.02 | 1.03 | 1.37 | 1.02 | 0.438 | 0.491 | 0.574 | 0.362 | 1.03 | 0.848 | 0.855 | 0.713 | 0.374 | 1.32 | 0.644 |
| HCC-366 | 0.171 | 0.165 | 0.188 | 1.02 | 1.03 | 1.12 | 0.956 | 0.15 | 0.168 | 0.098 | 0.154 | 0.9 | 0.97 | 0.532 | 0.208 | 0.105 | 1.11 | 0.579 |
| EMC-BAC-2 | 0.639 | 0.624 | 0.617 | 0.908 | 0.881 | 0.914 | 0.891 | 0.559 | 0.555 | 0.564 | 0.57 | 0.852 | 0.869 | 0.828 | 0.619 | 0.571 | 0.886 | 0.695 |
| NCI-H2405 | 0.354 | – | 0.556 | 1.08 | 1.08 | 1.2 | 0.885 | 0.453 | 0.383 | 0.584 | 0.328 | 0.69 | – | 0.483 | 0.603 | 0.384 | 1.12 | 0.627 |
| NCI-H358 | 0.657 | 0.978 | 0.833 | 0.449 | 0.554 | 0.49 | 0.347 | 0.368 | 0.422 | 0.348 | 0.269 | 0.443 | 0.417 | 0.365 | 0.705 | 0.39 | 0.386 | 0.258 |
| NCI-H1944 | 0.6 | 0.518 | 0.51 | 0.778 | 0.961 | – | 0.762 | 0.342 | 0.365 | – | 0.336 | 0.85 | 0.863 | 0.564 | 0.6 | 0.421 | 0.926 | 0.527 |
| EPLC-272H | 0.593 | – | 0.577 | 0.947 | 1.1 | 1.03 | 0.938 | 0.314 | 0.439 | 0.303 | 0.305 | 0.812 | – | 0.673 | 0.554 | 0.436 | 1.01 | 0.709 |
| EBC-1 | 0.32 | 0.346 | 0.299 | 0.222 | 0.177 | 0.18 | 0.155 | 0.337 | 0.392 | 0.248 | 0.132 | 0.184 | 0.196 | 0.216 | 0.27 | 0.177 | 0.211 | 0.218 |
| NCI-H1915 | 1.04 | 1.02 | 1.05 | 1.01 | 0.875 | 1.02 | 0.956 | 0.94 | 0.97 | 1.04 | 0.865 | 0.933 | 0.813 | 1.01 | 1.1 | 0.958 | 1.05 | 0.844 |
| NCI-H596 | 0.449 | 0.437 | 0.388 | 1.1 | 0.563 | 1.24 | 0.837 | 0.396 | 0.432 | 0.392 | 0.359 | 0.722 | 0.953 | 0.853 | 0.445 | 0.44 | 1.06 | 0.873 |
| NCI-H322M | 0.574 | 0.553 | 0.48 | 0.573 | 0.642 | 0.621 | 0.605 | 0.489 | 0.604 | 0.486 | 0.548 | 0.53 | 0.441 | 0.495 | 0.573 | 0.474 | 0.561 | 0.357 |
| NCI-H1299 | 1.14 | 1.17 | 1.28 | 0.965 | 0.933 | 0.972 | 0.862 | 0.734 | 0.777 | 1.05 | 0.649 | 0.94 | 0.956 | 0.983 | 1.27 | 1.04 | 1.11 | 0.948 |
| NCI-H2228 | 0.477 | 0.589 | 0.539 | 0.959 | 1.34 | 1.23 | 0.757 | 0.385 | 0.256 | 0.405 | 0.175 | 0.834 | 0.994 | 0.715 | 0.578 | 0.397 | 0.971 | 0.662 |
| IA-LM | 0.638 | 0.585 | 0.809 | – | 0.888 | 1.03 | 0.669 | 0.342 | 0.389 | 0.419 | 0.322 | 0.898 | 1.13 | 0.626 | 0.631 | 0.313 | 0.903 | – |
| NCI-H647 | 0.622 | – | 0.526 | 1.16 | 0.967 | 1.11 | 0.417 | – | 0.583 | 0.567 | 0.254 | 0.843 | – | 0.744 | 0.778 | 0.459 | 0.804 | 0.524 |
| SK-MES-1 | 0.515 | 0.658 | 0.433 | 0.476 | 0.433 | 0.539 | 0.483 | 0.339 | 0.41 | 0.364 | 0.31 | 0.363 | 0.366 | 0.319 | 0.459 | 0.269 | 0.367 | 0.301 |
